Measured values as given in PMC10318143, “Optimized bisubstrate inhibitors for the actin N-terminal acetyltransferase NAA80” (Frontiers in Chemistry, 2023).
*1 amine or outer side, *2 acyl side, *3 side chain or, on linkers, in order; H or OH if unused. Where a SMILES comes first, the peptide text is derived from it. [ ]: non-standard residue; d: D form. The star is where a group is joined. Pantoyl(4-O-3'-P-ADP) = CC(C)(COP(=O)(O)OP(=O)(O)OC[C@H]1O[C@@H](n2cnc3c(N)ncnc32)[C@H](O)[C@@H]1OP(=O)(O)O)[C@@H](O)C(=O)*; NHCH2CH2SCH2CO = O=C(CSCCN[*:1])[*:2]; βAla = NCCC(=O)O

Molecular target: T1, MBP-hNAA80 (Homo sapiens, UniProt Q93015)
T1 construct: made in house; host or cells: Escherichia coli BL21 star
T1 sequence (Q93015 1-286): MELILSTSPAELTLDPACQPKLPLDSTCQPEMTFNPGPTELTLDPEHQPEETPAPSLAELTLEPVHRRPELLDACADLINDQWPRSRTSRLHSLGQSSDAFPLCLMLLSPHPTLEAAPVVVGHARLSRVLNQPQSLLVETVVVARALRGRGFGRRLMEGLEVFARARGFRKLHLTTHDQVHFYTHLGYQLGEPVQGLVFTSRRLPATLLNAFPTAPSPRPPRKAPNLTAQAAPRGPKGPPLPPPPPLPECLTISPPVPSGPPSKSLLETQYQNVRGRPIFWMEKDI
Assay: In vitro DTNB Nt-acetyltransferase inhibitor assay
Type: biochemical
Details: 300 μM Ac-CoA, 300 μM substrate peptide, Tris pH 8.5, triplicates, ± standard deviation
Procedure: The enzymatic activity of MBP-hNAA80 was measured using a 5,5′-dithiobis-(2-nitrobenzoic acid, DTNB) assay as described previously by Foyn et al. ([Foyn et al., 2017]) and Drazic et al. ([Drazic et al., 2018]) Briefly, the thiol group exposed in the enzymatic product CoA cleaves DTNB and produces 2-nitro-5-thiobenzonate (TNB^−) which ionize to TNB^2- in neutral or alkaline pH and is readily quantified by measuring the absorbance at 412 nm.
An in vitro DTNB assay with enzyme (10–600 nM), 300 μM Ac-CoA, 300 μM substrate peptide, acetylation buffer (Tris, pH 8.5), and at least nine different inhibitor concentrations ranging from 0 to 500 μM was used to calculate the IC50 value for each bisubstrate inhibitor applied in the assay. The reaction was carried out as previously described ([Drazic et al., 2018]; [Goris et al., 2018]), and within a timeframe of 15–50 min. All measurements were performed in triplicates.

Compound	IC50 [µM]
CC[C@H](C)[C@H](NC(=O)[C@H](CCC(=O)O)NC(=O)[C@H](CC(=O)O)NC(=O)[C@H](CC(=O)O)NC(=O)CSCCNC(=O)CCNC(=O)[C@H](O)C(C)(C)COP(=O)(O)OP(=O)(O)OC[C@H]1O[C@@H](n2cnc3c(N)ncnc32)[C@H](O)[C@@H]1OP(=O)(O)O)C(N)=O [CoA-DDEI-NH2, CoA-Ac-DDEI-NH2] ({Pantoyl(4-O-3'-P-ADP)-βAla}-[NHCH2CH2SCH2CO]DDEI-NH2)	2.67 ± 0.67
CC[C@H](C)[C@H](NC(=O)[C@H](CCC(=O)O)NC(=O)[C@H](CCC(=O)O)NC(=O)[C@H](CC(=O)O)NC(=O)CSCCNC(=O)CCNC(=O)[C@H](O)C(C)(C)COP(=O)(O)OP(=O)(O)OC[C@H]1O[C@@H](n2cnc3c(N)ncnc32)[C@H](O)[C@@H]1OP(=O)(O)O)C(N)=O [CoA-DEEI-NH2, CoA-Ac-DEEI-NH2] ({Pantoyl(4-O-3'-P-ADP)-βAla}-[NHCH2CH2SCH2CO]DEEI-NH2)	1.22 ± 0.33
CC(C)C[C@H](NC(=O)[C@H](CCC(=O)O)NC(=O)[C@H](CCC(=O)O)NC(=O)[C@H](CC(=O)O)NC(=O)CSCCNC(=O)CCNC(=O)[C@H](O)C(C)(C)COP(=O)(O)OP(=O)(O)OC[C@H]1O[C@@H](n2cnc3c(N)ncnc32)[C@H](O)[C@@H]1OP(=O)(O)O)C(N)=O [CoA-DEEL-NH2, CoA-Ac-DEEL-NH2] ({Pantoyl(4-O-3'-P-ADP)-βAla}-[NHCH2CH2SCH2CO]DEEL-NH2)	4.73 ± 1.43
CC[C@H](C)[C@H](NC(=O)[C@H](CC(=O)O)NC(=O)[C@H](CC(=O)O)NC(=O)[C@H](CCC(=O)O)NC(=O)CSCCNC(=O)CCNC(=O)[C@H](O)C(C)(C)COP(=O)(O)OP(=O)(O)OC[C@H]1O[C@@H](n2cnc3c(N)ncnc32)[C@H](O)[C@@H]1OP(=O)(O)O)C(N)=O [CoA-EDDI-NH2, CoA-Ac-EDDI-NH2] ({Pantoyl(4-O-3'-P-ADP)-βAla}-[NHCH2CH2SCH2CO]EDDI-NH2)	0.12 ± 0.05
CC[C@H](C)[C@H](NC(=O)[C@H](CCC(=O)O)NC(=O)[C@H](CC(=O)O)NC(=O)[C@H](CCC(=O)O)NC(=O)CSCCNC(=O)CCNC(=O)[C@H](O)C(C)(C)COP(=O)(O)OP(=O)(O)OC[C@H]1O[C@@H](n2cnc3c(N)ncnc32)[C@H](O)[C@@H]1OP(=O)(O)O)C(N)=O [CoA-EDEI-NH2, CoA-Ac-EDEI-NH2] ({Pantoyl(4-O-3'-P-ADP)-βAla}-[NHCH2CH2SCH2CO]EDEI-NH2)	0.76 ± 0.18
CC(C)C[C@H](NC(=O)[C@H](CCC(=O)O)NC(=O)[C@H](CC(=O)O)NC(=O)[C@H](CCC(=O)O)NC(=O)CSCCNC(=O)CCNC(=O)[C@H](O)C(C)(C)COP(=O)(O)OP(=O)(O)OC[C@H]1O[C@@H](n2cnc3c(N)ncnc32)[C@H](O)[C@@H]1OP(=O)(O)O)C(N)=O [CoA-EDEL-NH2, CoA-Ac-EDEL-NH2] ({Pantoyl(4-O-3'-P-ADP)-βAla}-[NHCH2CH2SCH2CO]EDEL-NH2)	0.15 ± 0.02
CC(C)C[C@H](NC(=O)[C@H](CCC(N)=O)NC(=O)[C@H](CC(=O)O)NC(=O)[C@H](CCC(=O)O)NC(=O)CSCCNC(=O)CCNC(=O)[C@H](O)C(C)(C)COP(=O)(O)OP(=O)(O)OC[C@H]1O[C@@H](n2cnc3c(N)ncnc32)[C@H](O)[C@@H]1OP(=O)(O)O)C(N)=O [CoA-EDQL-NH2, CoA-Ac-EDQL-NH2] ({Pantoyl(4-O-3'-P-ADP)-βAla}-[NHCH2CH2SCH2CO]EDQL-NH2)	0.85 ± 0.05
CC[C@H](C)[C@H](NC(=O)[C@H](CC(=O)O)NC(=O)[C@H](CCC(=O)O)NC(=O)[C@H](CCC(=O)O)NC(=O)CSCCNC(=O)CCNC(=O)[C@H](O)C(C)(C)COP(=O)(O)OP(=O)(O)OC[C@H]1O[C@@H](n2cnc3c(N)ncnc32)[C@H](O)[C@@H]1OP(=O)(O)O)C(N)=O [CoA-EEDI-NH2, CoA-Ac-EEDI-NH2] ({Pantoyl(4-O-3'-P-ADP)-βAla}-[NHCH2CH2SCH2CO]EEDI-NH2)	0.17 ± 0.04
CC(C)C[C@H](NC(=O)[C@H](CC(=O)O)NC(=O)[C@H](CCC(=O)O)NC(=O)[C@H](CCC(=O)O)NC(=O)CSCCNC(=O)CCNC(=O)[C@H](O)C(C)(C)COP(=O)(O)OP(=O)(O)OC[C@H]1O[C@@H](n2cnc3c(N)ncnc32)[C@H](O)[C@@H]1OP(=O)(O)O)C(N)=O [CoA-EEDL-NH2, CoA-Ac-EEDL-NH2] ({Pantoyl(4-O-3'-P-ADP)-βAla}-[NHCH2CH2SCH2CO]EEDL-NH2)	1.76 ± 0.52
CC(C)C[C@H](NC(=O)[C@H](CCC(=O)O)NC(=O)[C@H](CCC(=O)O)NC(=O)[C@H](CCC(=O)O)NC(=O)CSCCNC(=O)CCNC(=O)[C@H](O)C(C)(C)COP(=O)(O)OP(=O)(O)OC[C@H]1O[C@@H](n2cnc3c(N)ncnc32)[C@H](O)[C@@H]1OP(=O)(O)O)C(N)=O [CoA-EEEL-NH2, CoA-Ac-EEEL-NH2] ({Pantoyl(4-O-3'-P-ADP)-βAla}-[NHCH2CH2SCH2CO]EEEL-NH2)	1.16 ± 0.12
CC(C)C[C@H](NC(=O)[C@H](CCC(=O)O)NC(=O)[C@H](CO)NC(=O)[C@H](CCC(=O)O)NC(=O)CSCCNC(=O)CCNC(=O)[C@H](O)C(C)(C)COP(=O)(O)OP(=O)(O)OC[C@H]1O[C@@H](n2cnc3c(N)ncnc32)[C@H](O)[C@@H]1OP(=O)(O)O)C(N)=O [CoA-ESEL-NH2, CoA-Ac-ESEL-NH2] ({Pantoyl(4-O-3'-P-ADP)-βAla}-[NHCH2CH2SCH2CO]ESEL-NH2)	11.5 ± 3.23
CC(C)C[C@H](NC(=O)[C@H](CCC(=O)O)NC(=O)[C@H](CC(=O)O)NC(=O)[C@@H]1CCCN1C(=O)CSCCNC(=O)CCNC(=O)[C@H](O)C(C)(C)COP(=O)(O)OP(=O)(O)OC[C@H]1O[C@@H](n2cnc3c(N)ncnc32)[C@H](O)[C@@H]1OP(=O)(O)O)C(N)=O [CoA-PDEL-NH2, CoA-Ac-PDEL-NH2] ({Pantoyl(4-O-3'-P-ADP)-βAla}-[NHCH2CH2SCH2CO]PDEL-NH2)	13.4 ± 2.24

Molecular target: T1, MBP-hNAA80
Assay: not given
Parameters: method as in Goris et al., 2018
Details: DTNB assay; ± standard deviation; ref Goris et al., 2018; cited from earlier work

Compound	IC50 [µM]
CC[C@H](C)[C@H](NC(=O)[C@H](CC(=O)O)NC(=O)[C@H](CC(=O)O)NC(=O)[C@H](CC(=O)O)NC(=O)CSCCNC(=O)CCNC(=O)[C@H](O)C(C)(C)COP(=O)(O)OP(=O)(O)OC[C@H]1O[C@@H](n2cnc3c(N)ncnc32)[C@H](O)[C@@H]1OP(=O)(O)O)C(N)=O [CoA-DDDI-NH2, CoA-Ac-DDDI-NH2] ({Pantoyl(4-O-3'-P-ADP)-βAla}-[NHCH2CH2SCH2CO]DDDI-NH2)	0.38 ± 0.1
CoA-EEEI-NH2: previously reported bisubstrate inhibitor: coenzyme A conjugated via acetyl linker to tetrapeptide amide EEEI (γ-actin N-terminus) (not fully specified; N-terminal amine acylated with acetyl linker thioether-bonded to coenzyme A sulfur (CoA-S-CH2-CO-); C-terminal amide)	1.16 ± 0.11
CoA-MDEL-NH2: previously reported bisubstrate inhibitor: coenzyme A conjugated via acetyl linker to tetrapeptide amide MDEL (not fully specified; N-terminal amine acylated with acetyl linker thioether-bonded to coenzyme A sulfur (CoA-S-CH2-CO-); C-terminal amide)	1.26 ± 0.1
